Read-outs that look alike come from different tables or passages of the source.
Key:
[1] = test system: PDX240 cells (colorectal cancer patient derived xenograft); test: drug response curves, traditional (bulk) organoids versus Micro-Organospheres, PDX240; assay type: cell-based, human; details: cell viabilities after 3 days of treatment
Description: In some variations, the Micro-Organospheres may be formed from cell lines grown as part of a Patient Derived Xenograft (PDX). For example, FIGS. 28A-28D illustrate Micro-Organospheres formed from cultured PDX240 cells. PDX240 cells are a Patient Derived Xenograft (PDX) tumor cell line (numbered 240 based on patient source) that were human tumors grown in immunodeficient mice (PDX) to form in vivo tumors. The xenograft tissue was extracted dissociated, and used to form Micro-Organospheres as described above. In this example a single cell was included in each Micro-Organospheres as it was formed. […] With progressive time in culture, at least some of the Micro-Organospheres show the cells dividing and forming structures.
(§1) Organoids were formed from Patient Derived Xenograft cells (including the PDX240 cells described above and a second PDX cell line, PDX19187) and were compared with Micro-Organospheres formed using the same cells. The organoids were formed using conventional techniques in which a large mass of […] in a well or dish was seeded with cells and cultured until growth was confirmed. Micro-Organospheres were generated from the traditional organoids.
(§2) Both traditional (“bulk”) organoids and the Micro-Organospheres were then treated with the same drugs (e.g., Oxaliplatin or SN38) and cell viabilities were measured after 3 days of treatment.

patient tumor = test: actual response of the patient's tumor to drug treatment; assay type: in vivo, human; details: for patient response to treatment: Example 3, treated with both Oxaliplatin and Irinotecan, after 6 months of treatment
[2] = test system: Patient-Derived Micro-Organospheres (tumor biopsy); test: drug effect screen on Patient-Derived Micro-Organospheres from a patient tumor biopsy; assay type: cell-based, human; details: for percent survival of the Micro-Organospheres in the presence of the drug: Example 3, FIGS. 23B-23C, predicts drug resistance
Description: The Patient-Derived Micro-Organospheres described herein may be used in a variety of different assays, and in particular may be used to determine drug formulation effects, including toxicity, on normal and/or abnormal (e.g., cancerous) tissue. For example, drug screening may include applying Micro-Organospheres into all or some wells of multi-well (e.g., a 96-well) plate. Alternatively custom plates may be used (e.g., a 10,000 micro-well array may be formed of a 100×100 wells). The Micro-Organospheres (e.g., gel droplets) may be applied into, or in some variations onto the multiple microwell arrays and incubated with culture medium. The Micro-Organospheres may be cultured over the course of 3-5 days. In some variations, on day 5, the wells (e.g., micro-reactors) may then be dosed with drug compounds, e.g., based on a set of FDA-approved anticancer drugs, to examine the effects of the drug panel. For example, the drugs texted may be based on the National Cancer Institute (Division of Cancer Treatment and Diagnosis (11)) screen, consisting of 147 agents intended to enable cancer research, drug discovery and combination drug studies. On Day 7, the Micro-Organospheres may be imaged via standard fluorescent microscopy and ranked based on drug response.
In this example, the screening assay may be automated. This may enable repeatable and automated workflow, which may increase the number of drugs screened from a few to hundreds. FIGS. 17A-17E illustrate one example of this workflow. In FIG. 17A, a tumor biopsy is taken and a plurality (e.g., >10,000) Micro-Organospheres are formed as described above (in FIG. 17A the junction region forming the Micro-Organospheres is illustrated).
In a similar set of experiments, Micro-Organospheres were generated from biopsy material (FIG. 23A), and a drug effect screen was performed using the resulting Micro-Organospheres. […] Thus, the Micro-Organospheres correlated strongly with patient response to the standard of care drugs. […]

[3] = test system: PDX19187 cells (colorectal cancer); assay type: cell-based, human; details: cell viabilities after 3 days of treatment
Procedure: as §1, §2

traditional cell line = test: traditional (2D) tumor cell line drug assay; assay type: cell-based; details: FIG. 22A; all dose ranges examined; predicts drug resistance
Description: As mentioned above, the Patient-Derived Micro-Organospheres and methods of using them to screen for drug compositions may be used to accurately predict the response of a patient tumor to one or more drug therapies. […] For example, in FIG. 22A-22D, the Micro-Organospheres, but not a cell line, was able to correlate with patient response.

O=c1[nH]cc(F)c(=O)[nH]1 [5-FU, Fluorouracil]
drug response curve (cell viability), bulk organoids compared with Micro-Organospheres [1]: comparable responses

CCc1c2c(nc3ccc(OC(=O)N4CCC(N5CCCCC5)CC4)cc13)-c1cc3c(c(=O)n1C2)COC(=O)[C@]3(O)CC [Irinotecan]
patient response to treatment (patient tumor): no response | percent survival of the Micro-Organospheres in the presence of the drug [2]: lack of effect

O=C1[O][Pt]2([NH][C@@H]3CCCC[C@H]3[NH]2)[O]C1=O [Oxaliplatin]
drug response curve (cell viability), bulk organoids compared with Micro-Organospheres ([3]; listed as Oxalipalatin): comparable response | tumor response of the patient to treatment (patient tumor; Example 2, FIGS. 22C (before) and 22D (post treatment)): responded to treatment | patient response to treatment (patient tumor): no response | cell survival of tumor Micro-Organospheres ([2]; Example 2, FIG. 22B, predicts drug sensitivity): significant decreases in cell survival | percent survival of the Micro-Organospheres in the presence of the drug [2]: no change in the percent survival | drug effect on traditional cell line (traditional cell line): no effect

CCc1c2c(nc3ccc(O)cc13)-c1cc3c(c(=O)n1C2)COC(=O)[C@]3(O)CC [SN38, 7-Ethyl-10-hydroxy-camptothecin]
drug response curve (cell viability), bulk organoids compared with Micro-Organospheres [1]: comparable responses | drug response curve (cell viability), bulk organoids compared with Micro-Organospheres [3]: comparable responses

Source: patent US20230003716A1, “METHODS AND APPARATUSES FOR PATIENT-DERIVED MICROORGANOSPHERES” (Xilis, Inc., priority 2020, published 2023)
